Experiments:
[1] = target: T1, hMAO-A (Homo sapiens, UniProt P21397); experiment: in vitro fluorometric hMAO-A inhibition assay (Amplex Red); format: biochemical; conditions: read-out: MAO A Inhibition %
T1 sequence (P21397 1-527): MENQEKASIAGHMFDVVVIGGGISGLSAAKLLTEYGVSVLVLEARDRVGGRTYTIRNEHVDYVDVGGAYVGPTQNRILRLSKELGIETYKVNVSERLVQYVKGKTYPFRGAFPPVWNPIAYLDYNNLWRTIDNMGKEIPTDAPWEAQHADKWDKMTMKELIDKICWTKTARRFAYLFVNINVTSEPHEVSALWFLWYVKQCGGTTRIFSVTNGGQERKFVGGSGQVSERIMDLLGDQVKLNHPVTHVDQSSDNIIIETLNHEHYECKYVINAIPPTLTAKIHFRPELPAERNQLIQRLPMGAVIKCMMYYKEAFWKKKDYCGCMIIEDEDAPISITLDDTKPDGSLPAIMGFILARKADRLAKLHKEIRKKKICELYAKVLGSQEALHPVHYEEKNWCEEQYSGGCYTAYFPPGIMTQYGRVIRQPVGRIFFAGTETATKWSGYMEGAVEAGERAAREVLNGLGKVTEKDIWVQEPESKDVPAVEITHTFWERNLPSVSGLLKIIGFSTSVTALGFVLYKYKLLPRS
Experimental: The in vitro fluorometric enzymatic assay, allowing to sensitively detect monoamine oxidase activity, was applied to investigate hMAO-A and hMAO-B inhibitory potential of compounds 3a–3j. The method was performed in two steps, as previously described. […]
An enzyme inhibition assay was performed according to our recent study. The inhibitor (20 μL/well) and hMAO-A (100 μL/well) or hMAO-B solution (100 μL/well) was added to the fine black-bottom 96-well microtiter plate and the mixture was incubated at 37 °C for 30 min. After the incubation period, the reaction was started by adding a working solution (100 μL/well) ([…] Amplex Red reagent, 1 U/mL horseradish peroxidase and 1 mM p-tyramine) and all pipetting processes were performed using a Biotek Precision XS robotic system (BioTek Instruments, Winooski, VT, USA).
The production of H2O2 and, subsequently, of resorufin was quantified at 37 °C in a BioTek-Synergy H1 microplate reader based on the fluorescence generated (excitation, 535 nm, emission, 587 nm) over a 15 min period, in which the fluorescence increased linearly. Control experiments were carried out simultaneously by replacing the inhibitor solution with 2% DMSO (20 μL). In order to check the probable inhibitory effect of inhibitors on horseradish peroxidase, a parallel reading was achieved by replacing enzyme solutions with 3% H2O2 solution (20 mM 100 μL/well). In addition, the probable capacity of the inhibitors to modify the fluorescence generated in the reaction mixture due to non-enzymatic inhibition was determined by mixing inhibitor and working solutions.
The specific fluorescence emission (used to obtain the final results) was calculated after subtraction of the background activity, which was determined from vials containing all components except the hMAO isoforms, which were replaced by phosphate buffer (100 μL/well). Blank, control and all concentrations of inhibitors were analyzed in quadruplicate and inhibition percent was calculated by using following equation: % Inhibition=(FCt2−FCt1)−(FIt2−FIt1)/FCt2−FCt1×100 where FCt2 is the fluorescence of a control well measured at t2 time; FCt1 is the fluorescence of a control well measured at t1 time; FIt2 is the fluorescence of an inhibitor well measured at t2 time; and FIt1 is the fluorescence of an inhibitor well measured at t1 time.
The IC50 values were calculated from a dose-response curve obtained by plotting the percentage inhibition versus the log concentration with the use of GraphPad PRISM software (version 5.0, GraphPad Software Inc., La Jolla, CA, USA).

Compound: COc1ccc2sc(SCC(=O)NN=Cc3ccc([N+](=O)[O-])s3)nc2c1 [Compound 3e, 2-((5-Methoxybenzothiazol-2-yl)thio)-N′-((5-nitrothiophen-2-yl)methylene)acetohydrazide]
- inhibition at 1000 µM ([1]; 10^−3 M): 22.1%
- inhibition at 100 µM ([1]; 10^−4 M): 18.6%
- melting point: 177.2 to 178.6 °C
